The source of these data is ChEMBL document CHEMBL1201862, “PubChem BioAssay data set” (2004).

Assay [1] can be described thus: NIH-3T3 fibroblast cytotoxicity, dose response, cytotoxicity control, cell-based, fluorescence, Alamar Blue, secondary assay (AID 2327).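 Note: NIH-3T3 mouse fibroblasts cultured with fluconazole at 8 µg/mL.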 Format: functional. For orientation: Resazurin is reduced to fluorescent resorufin, in cell work by metabolically active cells.
The nature of assay [2]: cells. It counts as functional.
For assay [3], the target named is ATP-dependent molecular chaperone HSP82 (Candida albicans (strain WO-1) (Yeast), UniProt C4YTQ8). Put plainly: steroid-induced GRE reporter decrease in yeast – S. cerevisiae, luminescence, Hsp90 inhibitor project, dose response (AID 2400).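 Note: beta-galactosidase luminescence from glucocorticoid response element reporter as proxy for Hsp90 function; inhibitor potency where signal loss means Hsp90 inhibition.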 Format: functional, cell-based.
Sequence of ATP-dependent molecular chaperone HSP82 (C4YTQ8 whole entry): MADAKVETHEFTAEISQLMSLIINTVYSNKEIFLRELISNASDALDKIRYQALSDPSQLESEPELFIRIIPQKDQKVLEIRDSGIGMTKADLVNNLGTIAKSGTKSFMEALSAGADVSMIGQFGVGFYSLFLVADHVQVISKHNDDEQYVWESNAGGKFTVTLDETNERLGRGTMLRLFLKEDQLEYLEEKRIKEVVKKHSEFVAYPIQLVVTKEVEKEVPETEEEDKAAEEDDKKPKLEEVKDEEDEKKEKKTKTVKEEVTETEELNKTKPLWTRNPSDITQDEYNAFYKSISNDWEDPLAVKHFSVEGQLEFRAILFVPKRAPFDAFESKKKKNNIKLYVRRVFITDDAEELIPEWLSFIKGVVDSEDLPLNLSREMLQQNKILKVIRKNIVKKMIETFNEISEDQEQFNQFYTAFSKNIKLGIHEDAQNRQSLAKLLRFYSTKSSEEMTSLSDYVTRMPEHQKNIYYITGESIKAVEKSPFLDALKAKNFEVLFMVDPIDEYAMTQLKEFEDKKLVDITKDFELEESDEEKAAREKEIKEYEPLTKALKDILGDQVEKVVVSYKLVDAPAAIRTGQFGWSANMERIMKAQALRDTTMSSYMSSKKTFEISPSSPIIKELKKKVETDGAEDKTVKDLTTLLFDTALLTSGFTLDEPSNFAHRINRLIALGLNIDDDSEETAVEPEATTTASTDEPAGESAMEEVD
In assay [4] the target is T1, Serine/threonine-protein phosphatase (Candida dubliniensis (strain CD36 / CBS 7987 / NCPF 3949 / NRRLY-17841) (Yeast), UniProt B9W6M3).
T1 sequence (B9W6M3 whole entry): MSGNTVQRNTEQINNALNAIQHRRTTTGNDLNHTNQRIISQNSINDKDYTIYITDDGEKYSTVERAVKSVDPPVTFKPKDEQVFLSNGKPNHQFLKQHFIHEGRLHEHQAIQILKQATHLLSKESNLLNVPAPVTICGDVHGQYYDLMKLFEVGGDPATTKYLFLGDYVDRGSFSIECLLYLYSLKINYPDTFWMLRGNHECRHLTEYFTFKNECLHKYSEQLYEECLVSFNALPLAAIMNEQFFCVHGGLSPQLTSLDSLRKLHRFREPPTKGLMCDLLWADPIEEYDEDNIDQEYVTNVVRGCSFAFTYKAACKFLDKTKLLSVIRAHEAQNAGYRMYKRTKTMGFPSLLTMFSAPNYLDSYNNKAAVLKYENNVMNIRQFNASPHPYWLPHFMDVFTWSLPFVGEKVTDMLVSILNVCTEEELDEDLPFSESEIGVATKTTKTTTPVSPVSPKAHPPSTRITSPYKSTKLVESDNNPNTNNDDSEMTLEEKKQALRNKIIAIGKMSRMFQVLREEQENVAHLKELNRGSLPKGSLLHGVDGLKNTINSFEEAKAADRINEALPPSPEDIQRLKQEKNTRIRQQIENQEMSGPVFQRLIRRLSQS
Put plainly: blockers of CaCl2-induced CDRE-lacZ signaling – S. cerevisiae, luminescence, secondary, dose response (AID 2388).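 Note: yeast reporter cells carrying a calcineurin-responsive lacZ construct stimulated with calcium chloride; luminescent beta-galactosidase reporter signal in whole cells rather than isolated phosphatase activity; potency for inhibition where a drop in reporter signal means calcineurin blockade.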 It counts as functional, cell-based.

The nature of assay [5]: fluconazole-exposed Candida albicans growth modulators – fluorescence, retest, confirmation (AID 2467). It counts as functional, cell-based.
Assay [6] can be described thus: HepG2 cell cytotoxicity, dose response, cytotoxicity control for non-replicating M. tuberculosis project (AID 489018). Particulars: Mycobacterium tuberculosis. Format: functional.
Assay [7] can be described thus: THP-1 cell cytotoxicity, dose response, cytotoxicity control for non-replicating M. tuberculosis project (AID 489025). Format: functional.
In assay [8] the target is NACHT, LRR and PYD domains-containing protein 3 (Homo sapiens, UniProt Q96P20). Nature of the assay: NALP3 inhibitors in yeast, dose response, luminescent (AID 488799). Format: functional.
Sequence of NACHT, LRR and PYD domains-containing protein 3 (Q96P20 whole entry, the tested form may be a part): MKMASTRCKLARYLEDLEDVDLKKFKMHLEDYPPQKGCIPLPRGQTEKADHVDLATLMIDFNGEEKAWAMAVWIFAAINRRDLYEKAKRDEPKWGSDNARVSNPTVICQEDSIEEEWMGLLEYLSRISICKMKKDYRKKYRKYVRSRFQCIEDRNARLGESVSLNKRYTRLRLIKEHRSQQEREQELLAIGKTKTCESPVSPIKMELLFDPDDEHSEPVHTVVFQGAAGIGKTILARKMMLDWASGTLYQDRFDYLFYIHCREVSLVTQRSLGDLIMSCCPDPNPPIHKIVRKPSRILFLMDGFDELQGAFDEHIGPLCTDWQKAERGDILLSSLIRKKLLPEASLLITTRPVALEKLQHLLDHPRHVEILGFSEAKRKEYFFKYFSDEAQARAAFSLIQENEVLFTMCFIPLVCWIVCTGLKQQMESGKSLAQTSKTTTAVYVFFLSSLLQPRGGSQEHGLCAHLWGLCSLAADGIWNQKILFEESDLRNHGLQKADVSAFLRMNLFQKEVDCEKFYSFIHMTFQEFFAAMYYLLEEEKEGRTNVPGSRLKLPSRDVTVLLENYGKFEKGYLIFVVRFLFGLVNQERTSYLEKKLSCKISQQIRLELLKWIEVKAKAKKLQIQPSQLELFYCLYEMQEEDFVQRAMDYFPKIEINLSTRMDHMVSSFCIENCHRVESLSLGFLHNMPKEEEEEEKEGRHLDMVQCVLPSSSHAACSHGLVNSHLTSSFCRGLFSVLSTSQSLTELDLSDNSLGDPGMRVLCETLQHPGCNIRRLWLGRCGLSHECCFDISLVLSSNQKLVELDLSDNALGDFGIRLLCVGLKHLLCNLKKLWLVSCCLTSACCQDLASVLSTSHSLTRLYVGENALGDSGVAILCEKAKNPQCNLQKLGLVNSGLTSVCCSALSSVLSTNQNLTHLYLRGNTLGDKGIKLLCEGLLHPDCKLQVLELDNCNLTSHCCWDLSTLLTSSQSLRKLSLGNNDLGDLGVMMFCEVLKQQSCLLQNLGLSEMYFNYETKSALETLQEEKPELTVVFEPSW
A short description of assay [9]: Vero E6 cell cytotoxicity, dose response, cytotoxicity control for non-replicating M. tuberculosis project, secondary assay (AID 492998). It counts as functional, VeroE6. As to conditions: Vero C1008.
Assay [10] deals with BJ. Nature of the assay: cells. It counts as functional, cell-based. As to conditions: Homo sapiens.
For assay [11], the system named is BJ. Nature of the assay: BJ-TERT fibroblast viability loss – cell-based, RAS-independent, luminescence, dose response (AID 1933). Format: functional. Particulars: Homo sapiens.
Assay [12] is described as follows: HEK-293T viability loss after treatment – luminescence, T-cell screen hits, cytotoxicity control for TCR NF-kB inhibitor project, dose response (AID 489026).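 Note: cells exposed to compound about 14 hours before the viability readout.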 Format: functional, cell-based.
The subject of assay [13] is BJ. Put plainly: BJ-TERT-LT-ST fibroblast viability loss – cell-based, RAS-independent, luminescence, dose response (AID 1935).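 Note: BJ fibroblasts immortalized with TERT plus LT and ST oncogenes.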 It counts as functional. As to conditions: Homo sapiens.
Assay [14] can be described thus: DRD fibroblast viability loss – cell-based, non-viral oncogenic, luminescence, dose response (AID 1934). It counts as functional. As to conditions: Homo sapiens.
In assay [15] the test system is J774.A1. Put plainly: Confirmation of image-based Screening Assay for Inhibitors of Phagocytosis. [Related pubchem assays (depositor defined):AID1029, AID1643]. It counts as functional, cell-based. As to conditions: Mus musculus.
Assay [16] addresses T2, Polyadenylate-binding protein 1 (Homo sapiens, UniProt P11940). Nature of the assay: MLLE binding blockers, Cy5 peptide tracer – biochemical, fluorescence polarization, Cy5-PAM2 peptide, secondary, miRNA deadenylation inhibitor project, dose response (AID 602260). Format: functional. Particulars: read-out: IC50_Mean. (Polarisation of emitted light reports the rotation of a fluorescent probe.)

Assay [17] concerns the target Potassium voltage-gated channel subfamily KQT member 2 (Rattus norvegicus, UniProt O88943). Nature of the assay: potentiation of rat KCNQ2 current – cell-based, retigabine-insensitive compounds, dose response (AID 2654). Format: functional.
Assay [18] has as its target T2, Polyadenylate-binding protein 1. Put plainly: MLLE domain peptide-binding blockers, IC50 – biochemical, fluorescence polarization, FITC-PAM2 peptide, dose response (AID 602259). It counts as functional. As to conditions: read-out: IC50_Mean.
The target in assay [19] is Phosphoethanolamine/phosphocholine phosphatase (Homo sapiens, UniProt Q8TCT1). Nature of the assay: SAR assay for compounds that inhibit PHOSPHO1. [Related pubchem assays (depositor defined):AID1545, AID1565, AID1574].
Sequence of Phosphoethanolamine/phosphocholine phosphatase (Q8TCT1 whole entry): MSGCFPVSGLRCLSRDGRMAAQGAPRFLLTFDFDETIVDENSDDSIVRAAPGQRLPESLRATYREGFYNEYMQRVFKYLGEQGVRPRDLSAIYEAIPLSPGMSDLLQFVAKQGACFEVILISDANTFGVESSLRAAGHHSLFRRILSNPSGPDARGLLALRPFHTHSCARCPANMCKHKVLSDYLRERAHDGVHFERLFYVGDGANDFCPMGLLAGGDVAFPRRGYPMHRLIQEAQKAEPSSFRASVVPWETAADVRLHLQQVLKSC
Assay [20] addresses Cytochrome P450 2D6 (Homo sapiens, UniProt P10635).

The source made the active and inactive calls.
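Throughout, for AC50: CYP2D6 member of a cytochrome P450 panel assay.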

T2 sequence (P11940 whole entry): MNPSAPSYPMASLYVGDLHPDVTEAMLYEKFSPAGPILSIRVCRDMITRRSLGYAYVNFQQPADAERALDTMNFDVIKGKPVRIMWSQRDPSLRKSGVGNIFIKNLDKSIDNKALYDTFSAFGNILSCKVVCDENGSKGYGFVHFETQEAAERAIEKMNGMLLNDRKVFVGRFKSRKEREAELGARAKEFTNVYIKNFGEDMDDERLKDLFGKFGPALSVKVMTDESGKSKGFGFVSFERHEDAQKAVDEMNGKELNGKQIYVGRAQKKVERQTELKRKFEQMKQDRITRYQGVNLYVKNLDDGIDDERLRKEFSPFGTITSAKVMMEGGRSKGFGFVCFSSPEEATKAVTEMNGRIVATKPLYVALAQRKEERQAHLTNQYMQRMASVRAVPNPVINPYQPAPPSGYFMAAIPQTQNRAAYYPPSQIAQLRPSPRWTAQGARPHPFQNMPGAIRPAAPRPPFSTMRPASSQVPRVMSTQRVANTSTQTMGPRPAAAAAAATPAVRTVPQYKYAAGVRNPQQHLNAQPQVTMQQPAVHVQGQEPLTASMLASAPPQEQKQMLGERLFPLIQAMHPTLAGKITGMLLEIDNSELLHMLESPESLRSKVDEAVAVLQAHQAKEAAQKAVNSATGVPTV
Sequence of Potassium voltage-gated channel subfamily KQT member 2 (O88943 whole entry, the tested form may be a part): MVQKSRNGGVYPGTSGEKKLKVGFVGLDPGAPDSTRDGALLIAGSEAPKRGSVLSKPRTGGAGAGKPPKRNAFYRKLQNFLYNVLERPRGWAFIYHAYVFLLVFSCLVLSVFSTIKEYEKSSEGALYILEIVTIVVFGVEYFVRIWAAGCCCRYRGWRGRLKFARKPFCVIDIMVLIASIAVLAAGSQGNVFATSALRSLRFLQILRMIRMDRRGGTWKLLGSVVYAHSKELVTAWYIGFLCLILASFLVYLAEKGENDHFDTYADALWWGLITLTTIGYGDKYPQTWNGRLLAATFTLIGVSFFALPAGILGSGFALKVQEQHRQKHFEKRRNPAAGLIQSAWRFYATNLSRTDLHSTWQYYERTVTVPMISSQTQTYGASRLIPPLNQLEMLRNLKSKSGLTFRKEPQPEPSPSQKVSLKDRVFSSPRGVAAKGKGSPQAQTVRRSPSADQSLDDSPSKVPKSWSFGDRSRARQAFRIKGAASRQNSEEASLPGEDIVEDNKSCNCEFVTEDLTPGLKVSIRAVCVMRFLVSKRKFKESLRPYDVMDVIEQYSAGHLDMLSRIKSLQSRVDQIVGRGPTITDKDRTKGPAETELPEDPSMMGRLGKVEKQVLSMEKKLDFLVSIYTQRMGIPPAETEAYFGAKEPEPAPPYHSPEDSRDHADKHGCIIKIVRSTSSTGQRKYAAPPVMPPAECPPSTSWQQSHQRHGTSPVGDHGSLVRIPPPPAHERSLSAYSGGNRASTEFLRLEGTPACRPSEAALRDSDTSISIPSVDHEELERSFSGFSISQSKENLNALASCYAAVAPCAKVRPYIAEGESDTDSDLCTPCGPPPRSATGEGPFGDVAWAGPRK
Sequence of Cytochrome P450 2D6 (P10635 whole entry): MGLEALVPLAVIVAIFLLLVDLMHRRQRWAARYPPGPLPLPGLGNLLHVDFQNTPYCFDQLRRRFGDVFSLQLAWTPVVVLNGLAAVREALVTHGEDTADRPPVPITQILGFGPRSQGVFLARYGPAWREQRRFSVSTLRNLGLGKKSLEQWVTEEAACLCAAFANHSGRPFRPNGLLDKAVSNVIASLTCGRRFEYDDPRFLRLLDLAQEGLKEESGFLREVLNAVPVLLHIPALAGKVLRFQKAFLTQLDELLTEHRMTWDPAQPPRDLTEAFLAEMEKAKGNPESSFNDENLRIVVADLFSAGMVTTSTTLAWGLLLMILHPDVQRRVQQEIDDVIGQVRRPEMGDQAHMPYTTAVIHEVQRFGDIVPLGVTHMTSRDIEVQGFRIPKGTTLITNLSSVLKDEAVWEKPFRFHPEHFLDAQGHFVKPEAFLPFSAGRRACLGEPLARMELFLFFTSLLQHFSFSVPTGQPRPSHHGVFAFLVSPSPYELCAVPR

One may read the EC50 as the concentration at which the effect is half-maximal. By CC50 is commonly meant the concentration that lowers cell viability or growth by half. With `O=c1c2cc(Br)ccc2nc(-c2ccc([N+](=O)[O-])cc2)n1O`, the EC50 in assay [1] was > 150 µM (inactive); in assay [3], 2.56 µM (active); in assay [4], 3.07 µM (active); in assay [5] it was 0.585 µM (active). Further, the IC50 is 11.9 µM (active) in assay [2] and 4.91 µM (active) in [8]. Further, the figures for the CC50 in assay [6], in assay [7] and in [9] were 19.9 µM (active), 20.3 µM (active) and 18.4 µM (active), respectively.

`CCOc1ccccc1C1CC(=O)Nc2cc3c(cc21)OCCO3` (stereo not given): the EC50 is 22.3 µM (active) in assay [10], 1.23 µM (active) in [11], 0.814 µM (inconclusive) in assay [13] and 0.829 µM (active) in assay [14]. The IC50 is > 80 µM (inactive) in [12] and > 25 µM (inactive) in assay [15].

Regarding `Fc1cccc(NC(=S)Nc2cccnc2)c1`, the IC50 in [16] and in assay [18] was > 66 µM (inactive) in each case. The EC50 in assay [17] is 41.9 µM (active).

For orientation: AC50 means the concentration giving half of the maximal activity seen. On to `Cc1c(OCC(F)(F)F)ccnc1C[S+]([O-])c1nc2ccccc2[nH]1` (stereo not given) [LANSOPRAZOLE], for which, in [19], the IC50 was 0.434 µM (active). Also, the AC50 in assay [20] was 12.6 µM (inconclusive).
